Patent publication US20020137929A1, “1 - (3-heterocyclylphenyl) isothiourea, -isourea, -guanidine and -amidine herbicidal agents” (Intellectual Property Department, BASF Aktiengesellschaft, priority 1998, published 2002)

What was measured:
[1] = tested on: CASOB (Sicklepod); assay: Preemergence herbicidal evaluation; assay type: in vivo, Cassia obtusifolia; conditions: rated 4-5 weeks after treatment
Procedure, shortened: (§1)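 Seeds were planted in potting soil in cups, then sprayed preemergence with the test compound in aqueous acetone at about 0.0156 to 0.500 kg per hectare. Cups were kept under greenhouse conditions and visually rated 4–5 weeks after treatment on a 0–9 scale against an untreated control.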

[2] = tested on: ZEAMX (Corn, Field); assay: Postemergence herbicidal evaluation; assay type: in vivo, Zea mays; conditions: postemergence
Procedure, shortened: (§2)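 ~2-wk seedlings; postemergence spray, 40 psi; vehicle 1:1 acetone:water + 0.5% Tween 20; rate ≈0.0156–0.500 kg/ha; greenhouse hold; scored 4–5 wk after treatment, 0–9 scale vs control; repeat tests averaged.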

[3] = tested on: GLXMAW (Soybean, Williams); assay: Postemergence herbicidal evaluation; assay type: in vivo, Glycine max, (L.) Merr. cv Williams; conditions: postemergence
Procedure, shortened: as §2

[4] = tested on: SETVI (Foxtail, Green); assay: Postemergence herbicidal evaluation; assay type: in vivo, Setaria viridis; conditions: postemergence
Procedure, shortened: as §2

[5] = tested on: IPOHE (Morningglory, Ivyleaf); assay: Postemergence herbicidal evaluation; assay type: in vivo, Ipomoea hederacea; conditions: postemergence
Procedure, shortened: as §2

[6] = tested on: ABUTH (Velvetleaf); assay: Preemergence herbicidal evaluation; assay type: in vivo, Abutilon theophrasti; conditions: rated 4-5 weeks after treatment
Procedure, shortened: as §1

[7] = tested on: ECHCG (Barnyardgrass); assay: Preemergence herbicidal evaluation; assay type: in vivo, Echinochloa crus-galli; conditions: rated 4-5 weeks after treatment
Procedure, shortened: as §1

[8] = tested on: CYPSE (Flatsedge); assay: Preemergence weed control under flooded paddy conditions; assay type: in vivo, Cyperus serotinus; conditions: rated 3-4 weeks after treatment
Procedure, shortened: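 Silt loam, seeds in top 0.5 cm; flood held 1.5-3 cm; test cpd as acetone/water 50/50 into flood water, ~0.0313-0.500 kg/ha a.i.; greenhouse 3-4 wk; visual 0-9 score vs control.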

[9] = tested on: IPOHE (Morningglory, Ivyleaf); assay: Preemergence herbicidal evaluation; assay type: in vivo, Ipomoea hederacea; conditions: rated 4-5 weeks after treatment
Procedure, shortened: as §1

[10] = tested on: ABUTH (Velvetleaf); assay: Postemergence herbicidal evaluation; assay type: in vivo, Abutilon theophrasti; conditions: postemergence
Procedure, shortened: as §2

[11] = tested on: ECHORC (Watergrass (Calif.)); assay: Preemergence weed control under flooded paddy conditions; assay type: in vivo, Echinochloa oryzoides; conditions: rated 3-4 weeks after treatment
Procedure, shortened: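 Seeds or propagules sown in top 0.5 cm of silt loam soil, flooded 1.5 to 3 cm above surface throughout. Compound in 50/50 v/v aqueous/acetone pipetted into flood water at about 0.0313 to 0.500 kg/ha. Visual 0-9 rating versus control after three to four weeks in greenhouse.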

[12] = tested on: AMBEL (Ragweed, Common); assay: Preemergence herbicidal evaluation; assay type: in vivo, Ambrosia artemisifolia; conditions: rated 4-5 weeks after treatment
Procedure, shortened: as §1

In the case of CC(C)COC(=O)CN1C(=O)CSC1=Nc1cc(-n2c(=O)cc(C(F)(F)F)n(C)c2=O)c(F)cc1Cl [Compound 121, Isobutyl 2-{{2-chloro-5-[3,6-dihydro-3-methyl-2,6-dioxo-4-(trifluoromethyl)-1(2H)-pyrimidinyl]-4-fluorophenyl}imino}-4-oxo-3-thiazolidineacetate], the “Preemergence herbicidal rating CASOB” value ([1]; rate 0.0156 kg/ha) is reported as 0.0, the “Preemergence herbicidal rating CASOB” value ([1]; rate 0.0313 kg/ha) is reported as 0.0 and the “Preemergence herbicidal rating CASOB” value ([1]; rate 0.0625 kg/ha) is reported as 0.0. For the same compound, the “Preemergence herbicidal rating CASOB” value ([1]; rate 0.1250 kg/ha) was 9.0, the “Preemergence herbicidal rating CASOB” value ([1]; rate 0.2500 kg/ha) was 9.0 and the “Herbicidal rating ZEAMX” value ([2]; rate 0.0156 kg/ha) was 5.0. The “Herbicidal rating ZEAMX” value ([2]; rate 0.0313 kg/ha) was 5.0, the “Herbicidal rating ZEAMX” value ([2]; rate 0.0625 kg/ha) was 6.0 and the “Herbicidal rating GLXMAW” value ([3]; rate 0.0156 kg/ha) was 6.0. The “Herbicidal rating GLXMAW” value ([3]; rate 0.0313 kg/ha) was 8.0, the “Herbicidal rating GLXMAW” value ([3]; rate 0.0625 kg/ha) was 8.0 and the “Herbicidal rating SETVI” value ([4]; rate 0.0156 kg/ha) was 8.0. For the same compound, the “Herbicidal rating SETVI” value ([4]; rate 0.0313 kg/ha) was 8.0, the “Herbicidal rating SETVI” value ([4]; rate 0.0625 kg/ha) was 9.0 and the “Herbicidal rating IPOHE” value ([5]; rate 0.0156 kg/ha) was 9.0. The “Herbicidal rating IPOHE” value ([5]; rate 0.0313 kg/ha) was 9.0, the “Herbicidal rating IPOHE” value ([5]; rate 0.0625 kg/ha) was 9.0 and the “Preemergence herbicidal rating ABUTH” value ([6]; rate 0.0156 kg/ha) was 9.0. The “Preemergence herbicidal rating ABUTH” value ([6]; rate 0.0313 kg/ha) was 9.0, the “Preemergence herbicidal rating ABUTH” value ([6]; rate 0.0625 kg/ha) was 9.0 and the “Preemergence herbicidal rating ABUTH” value ([6]; rate 0.1250 kg/ha) was 9.0. The “Preemergence herbicidal rating ABUTH” value ([6]; rate 0.2500 kg/ha) was 9.0, the “Preemergence herbicidal rating ECHCG” value ([7]; rate 0.0156 kg/ha) was 0.0 and the “Preemergence herbicidal rating ECHCG” value ([7]; rate 0.0313 kg/ha) was 0.0. The “Preemergence herbicidal rating ECHCG” value ([7]; rate 0.0625 kg/ha) was 4.0, the “Preemergence herbicidal rating ECHCG” value ([7]; rate 0.1250 kg/ha) was 7.0 and the “Preemergence herbicidal rating ECHCG” value ([7]; rate 0.2500 kg/ha) was 9.0. For the same compound, the “herbicidal effect rating, CYPSE” value ([8]; 0.0313 kg/ha) was 2.0, the “herbicidal effect rating, CYPSE” value ([8]; 0.1250 kg/ha) was 5.0 and the “herbicidal effect rating, CYPSE” value ([8]; 0.2500 kg/ha) was 5.0. For the same compound, the “Preemergence herbicidal rating IPOHE” value ([9]; rate 0.0156 kg/ha) was 0.0, the “Preemergence herbicidal rating IPOHE” value ([9]; rate 0.0313 kg/ha) was 0.0 and the “Preemergence herbicidal rating IPOHE” value ([9]; rate 0.0625 kg/ha) was 3.0. The “Preemergence herbicidal rating IPOHE” value ([9]; rate 0.1250 kg/ha) was 4.0, the “Preemergence herbicidal rating IPOHE” value ([9]; rate 0.2500 kg/ha) was 9.0 and the “Herbicidal rating ABUTH” value ([10]; rate 0.0156 kg/ha) was 9.0. The “Herbicidal rating ABUTH” value ([10]; rate 0.0313 kg/ha) was 9.0, the “Herbicidal rating ABUTH” value ([10]; rate 0.0625 kg/ha) was 9.0 and the “herbicidal effect rating, ECHORC” value ([11]; 0.0313 kg/ha) was 4.0. For the same compound, the “herbicidal effect rating, ECHORC” value ([11]; 0.0625 kg/ha) was 5.0, the “herbicidal effect rating, ECHORC” value ([11]; 0.1250 kg/ha) was 6.0 and the “herbicidal effect rating, ECHORC” value ([11]; 0.2500 kg/ha) was 6.0. The “Preemergence herbicidal rating AMBEL” value ([12]; rate 0.0156 kg/ha) was 0.0, the “Preemergence herbicidal rating AMBEL” value ([12]; rate 0.0313 kg/ha) was 2.0 and the “Preemergence herbicidal rating AMBEL” value ([12]; rate 0.0625 kg/ha) was 3.0. The “Preemergence herbicidal rating AMBEL” value ([12]; rate 0.1250 kg/ha) was 4.0 and the “Preemergence herbicidal rating AMBEL” value ([12]; rate 0.2500 kg/ha) was 8.0.
